Laboratory results reported in US20020013324A1, “N-substituted imide derivatives with serotonergic activity” (American Home Products Corporation, priority 1999, published 2002).
Structures can show the parent of a compound that is named as a salt.

Legend:
human 5-HT1A receptor = target: T1, human 5-HT1A receptor (Homo sapiens, UniProt P08908); assay: Displacement of [3H]8-OH-DPAT from the 5-HT1A receptor in transfected CHO cells; conditions: [3H]-8-OH-DPAT 1.5 nM; CHO cells with human 5-HT1A receptor; nonspecific binding with 10 μM 5-HT; room temperature; read-out: 5-HT1A Affinity (IC50)
T1 construct: expressed in transfected cells; host or cells: CHO cells (stably transfected)
T1 sequence (P08908 1-422): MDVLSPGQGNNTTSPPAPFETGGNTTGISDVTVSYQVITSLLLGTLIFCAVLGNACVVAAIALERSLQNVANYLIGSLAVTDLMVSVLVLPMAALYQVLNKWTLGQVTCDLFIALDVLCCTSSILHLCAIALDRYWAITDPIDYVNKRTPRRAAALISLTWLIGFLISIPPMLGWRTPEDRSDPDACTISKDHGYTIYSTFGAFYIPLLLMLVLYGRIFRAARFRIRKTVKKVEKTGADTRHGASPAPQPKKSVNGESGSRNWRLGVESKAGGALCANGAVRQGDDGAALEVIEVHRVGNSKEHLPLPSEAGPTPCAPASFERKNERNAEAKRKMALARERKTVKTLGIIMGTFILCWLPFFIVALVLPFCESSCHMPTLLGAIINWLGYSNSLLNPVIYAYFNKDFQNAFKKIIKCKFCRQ
Description: Affinity for the serotonin 5-HT1A receptor was established by assaying the test compound's ability to displace [3H]8-OHDPAT (dipropylaminotetralin) from its binding site on the receptor complex in CHO cells stably transfected with the human 5-HT1A receptor following a variation of a procedure of J. Zgombick et al., Naunyn-Schmiedeberg's Arch. Pharmacol., 354, 226-236 (1996), as described by J. Dunlop, Y. Zhang, D. L. Smith and L. E. Schechter, Journal of Pharmacological and Toxicological Methods 40, 47-55 (1998). The variation includes: the use of cells containing clonal human 5-HT1A receptor in place of 5-HT1D receptor; the use of [3H]-8-OH-DPAT (1.5 nM) as radioligand in place of [3H]-LSD; nonspecific binding determined with 10 μM 5-HT; and the test procedure was run at room temperature rather than 37° C.

Row | Compound | melting point [°C] | IC50 (human 5-HT1A receptor) [nM]
1 | COc1ccccc1N1CCN(C[C@@H](Cc2ccccc2)N(C(=O)C2CCCCC2)C(=O)C2CCCCC2)CC1 (as salt: fumarate) [Example 10, (R)-Cyclohexanecarboxylic acid cyclohexanecarbonyl-{1-benzyl)-2-[4-(2-methoxy-phenyl)-piperazin-1yl]-ethyl}-amide fumarate] | 146 to 147 | –
2 | O=C(C1CCCCC1)N(CCN1CCN(c2cccc3c2OCCO3)CC1)C(=O)C1CCCCC1 (as salt: hydrochloride) (hydrate or solvate) [Example 8, Cyclohexanecarboxylic acid cyclohexanecarbonyl-{2-[4-(2,3-dihydro-benzo[1,4]-dioxin)-5-yl}-piperazin-1-yl]-ethyl}-amide sesquihydrochloride monohydrate] | 148 to 149 | –
3 | O=C(c1ccccc1)N(CCN1CCN(c2cccc3c2OCCO3)CC1)C(=O)C1CCCCC1 (as salt: hydrochloride) (hydrate or solvate) [Example 14, Cyclohexanecarboxylic acid benzoyl-{2-[4-(2,3-dihydro-benzo[1,4]dioxin-5-yl)-1-piperazin-1-ylethyl]-amide hydrochloride sesquihydrate] | 169 to 171 | –
4 | COc1ccccc1N1CCN(CCN(C(=O)C2CCCCC2)C(=O)C2CCCCC2)CC1.Cl.Cl [Example 6, Cyclohexanecarboxylic acid cyclohexanecarbonyl-{2-[4-(2-methoxyphenyl)-piperazin-1-yl]-ethyl}-amide dihydrochloride] | 159 to 160 | 3.1
5 | Cl.Cl.O=C(C1CCCCC1)N(CCN1CCN(c2cccc3[nH]ccc23)CC1)C(=O)C1CCCCC1 [Example 7, Cyclohexanecarboxylic acid cyclohexanecarbonyl-{2-[4-(1H-indol-4-yl)-piperazin-1-yl]-ethyl}-amide dihydrochloride] | 144 to 146 | 4.55
6 | COc1ccccc1N1CCN(C[C@@H](Cc2ccccc2)N(C(=O)C2CCCCC2)C(=O)C2CCCCC2)CC1 [Example 10, (R)-Cyclohexanecarboxylic acid cyclohexanecarbonyl-{1-benzyl)-2-[4-(2-methoxy-phenyl)-piperazin-1yl]-ethyl}-amide fumarate] | – | 61
7 | COc1ccc(C[C@H](CN2CCN(c3ccccc3OC)CC2)N(C(=O)C2CCCCC2)C(=O)C2CCCCC2)cc1 [Example 11, (R)-Cyclohexanecarboxylic acid cyclohexanecarbonyl-{1-(4-methoxybenzyl)-2-[4-(2-methoxyphenyl)-piperazin-1-yl]-etlyl}-amide hydrochloride] | – | 0.38
8 | O=C(c1ccccc1)N(CCN1CCN(c2cccc3c2OCCO3)CC1)C(=O)C1CCCCC1 [Example 14, Cyclohexanecarboxylic acid benzoyl-{2-[4-(2,3-dihydro-benzo[1,4]dioxin-5-yl)-1-piperazin-1-ylethyl]-amide hydrochloride sesquihydrate] | – | 5.13
9 | COc1ccccc1N1CCN(CCN(C(=O)c2ccccc2)C(=O)c2ccccc2)CC1 [Example 15, N-Benzoyl-N-{-2-[4-(2-methoxyphenyl)-piperazin-1-yl]-ethyl}-benzamide hydrochloride hemihydrate] | – | 23.4
10 | COc1ccccc1N1CCN(C[C@@H](C)N(C(=O)c2ccccc2)C(=O)c2ccccc2)CC1 [Example 16, (R)-N-Benzoyl-N-{1-methyl-2-[4-(2-methoxyphenyl)-piperazin-1-yl]-ethyl}-benzamide semifumarate-hemihydrate] | – | 79.6
11 | (R)-Cyclohexanecarboxylic acid cyclohexanecarbonyl-{1-methyl-2-[4-(2-methoxyphenyl)-piperazin-2-yl]-ethyl}-amide fumarate [Example 9] | – | 2.69

Continued, values first:

Row | melting point [°C] | IC50 (human 5-HT1A receptor) [nM] | Compound
12 | 115 to 120 | – | COc1ccccc1N1CCN(C[C@@H](C)N(C(=O)c2ccccc2)C(=O)c2ccccc2)CC1 (as salt: fumarate) (hydrate or solvate) [Example 16, (R)-N-Benzoyl-N-{1-methyl-2-[4-(2-methoxyphenyl)-piperazin-1-yl]-ethyl}-benzamide semifumarate-hemihydrate]
13 | 106 to 108 | – | COc1ccc(C[C@H](CN2CCN(c3ccccc3OC)CC2)N(C(=O)C2CCCCC2)C(=O)C2CCCCC2)cc1 (as salt: hydrochloride) [Example 11, (R)-Cyclohexanecarboxylic acid cyclohexanecarbonyl-{1-(4-methoxybenzyl)-2-[4-(2-methoxyphenyl)-piperazin-1-yl]-etlyl}-amide hydrochloride]
14 | 136 to 138 | – | COc1ccccc1N1CCN(C[C@@H](Cc2cn(C)c3ccccc23)N(C(=O)C2CCCCC2)C(=O)C2CCCCC2)CC1.Cl.O (hydrate or solvate) [Example 12, (R)-Cyclohexanecarboxylic acid cyclohexanecarbonyl-{1-[4-(2-methoxyphenyl)-piperazin-1-ylmethyl]-2-(1-methyl-1H-indol-3-yl)ethyl}-amide hydrochloride monohydrate]
15 | – | 4.77 | O=C(C1CCCCC1)N(CCN1CCN(c2cccc3c2OCCO3)CC1)C(=O)C1CCCCC1 [Example 8, Cyclohexanecarboxylic acid cyclohexanecarbonyl-{2-[4-(2,3-dihydro-benzo[1,4]-dioxin)-5-yl}-piperazin-1-yl]-ethyl}-amide sesquihydrochloride monohydrate]
16 | – | 0.78 | COc1ccccc1N1CCN(C[C@@H](Cc2cn(C)c3ccccc23)N(C(=O)C2CCCCC2)C(=O)C2CCCCC2)CC1 [Example 12, (R)-Cyclohexanecarboxylic acid cyclohexanecarbonyl-{1-[4-(2-methoxyphenyl)-piperazin-1-ylmethyl]-2-(1-methyl-1H-indol-3-yl)ethyl}-amide hydrochloride monohydrate]
